In paper PMC4893612 (Scientific Reports, 2016):

Legend:
UCHL5 = biological target: T1, UCHL5 (Homo sapiens, UniProt Q9Y5K5); test: HA-Ub-VS active-site labeling of purified 19S, UCHL5; assay type: biochemical; conditions: purified 19S RP; compared with USP14
T1 construct: purchased Boston Biochem E-366
Experimental: (§1) Cell extract proteins were resolved by Tris-Acetate PAGE gels (Invitrogen, Carlsbad, CA) and transferred onto a polyvinylidene difluoride (PVDF) membrane for western blotting. For Ub-VS labeling, we lysed cell pellets from control or treated cells with buffer (50 mM HEPES pH 7.4, 250 mM sucrose, 10 mM MgCl2, 2 mM ATP, 1 mM DTT and 1%NP-40) on ice for 30 min and removed debris by centrifugation. We labeled 25 μg of protein with 1 μM Ub-VS for 30 min at 37 °C. We resolved samples by SDS-PAGE and performed immunoblotting. For HA-Ub-VS labeling, we pretreated purified 19S (5 nM) with DMSO or 2.5, 5, 10, 15 or 25μM 1570 for 10 min at room temperature, which followed with labeling with 1 μM HA-Ub-VS for 30 min at 37 °C and immunoblotting.

proteasome DUB activity = system: proteasome DUB activity; parameters: method as in PMID 25854145; conditions: in cells; read-out: in vivo IC50 for inhibition of proteasome DUB activity and induction of apoptosis; cited from earlier work
[1] = parameters: method as in PMID 25854145; conditions: cited from earlier work
non-proteasomal DUBs = system: non-proteasomal DUBs; parameters: method as in PMID 25854145; conditions: cited from earlier work
OPM-2 cells = test: 3H-VLX1570 retention after wash-out in OPM-2 cells; assay type: cell-based, human; conditions: 1 hour exposure, 17 hours in drug-free medium
USP14 [2] = biological target: T2, USP14 (Homo sapiens, UniProt P54578); test: SPR binding to recombinant USP14, CM7 chip; conditions: protein from Karolinska Institute Protein Science Facility, read-out: USP14(K) KD
Source text: A BIACORE T200 was used for characterization of the interaction between compounds and USP14, UCHL5 and 26S proteasome. The standard BIACORE protocols were used for NTA chip (Ni/His-tag immobilization) and CM7 chip for compound interaction studies with slight modification described below. The x6 his-tagged USP14 and UCHL5 proteins were coupled to a Series S NTA BIACORE sensor chip in the BIACORE T200 using the his-tags for adherence of the proteins to the surface and an amine coupling procedure for covalent attachment to the chip surface. NTA chip was cleaned using three 500 μM EDTA injections followed by an injection of 500 μM Ni^2+ and activation of the chip surface with EDC/NHS injection according to BIACORE standard methods. Each chip has four separate areas, which were handled separately during the immobilization procedure. Area 1 was used as blank reference surface, area 2–4 was coupled with investigated recombinant proteins or complexes. Proteins were diluted in running buffer (10 mM HEPES, 150 mM NaCl, 0,005% Tween 20) to typically 10 μg/ml before injection(1 mL) over the prepared surfaces. […] The immobilization procedure was followed by injections of compound concentration series of VLX1570. […] Rmax and KD were calculated using Langmuir binding isotherms as provided in the Biacore software.

RPMI8226 = test: MTT antiproliferative assay, RPMI8226; assay type: cell-based; conditions: Homo sapiens, RPMI-8226, 72 hours
Experimental: Cell viability was monitored by the MTT (3-(4,5-dimethylthiazol-2-yl)-2,5-diphenyltetrazolium bromide) assay. For the MTT assay, cells were suspended at 5 × 10^5 cells/ml, and 100 μl aliquots were dispended into 96-well microtiter plates and exposed to drugs as described using DMSO control. At the end of incubations, 10 μl of a stock solution of 5 mg/ml MTT (3-(4,5-dimethylthiazol-2-yl)-2,5-diphenyltetrazolium bromide), was added into each well, and the plates were incubated 4 hours at 37 °C. Formazan crystals were dissolved with 100 μl of 10% SDS/10 mM HCl solution overnight at 37 °C. Since MTT assays are affected by mitochondrial activity, and since OXPHOS is affected by VLX1570 (unpublished observation), we used the acid phosphatase method[49] to determine cell viability in some experiments. After washing twice with PBS, cells were lysed in 100 μl of 0.1 M sodium acetate, 0,1% Triton X-100, p-nitrophenylphosphate (Pierce Biotechnology Inc, Rockford, IL) and incubated for 90 min at 37 °C. At the end of the incubation, 10 μl NaOH was added to each well and A405 was determined.

USP14 [3] = biological target: T2, USP14; test: HA-Ub-VS active-site labeling of purified 19S, USP14; assay type: biochemical; parameters: purchased Boston Biochem E-366; conditions: purified 19S RP; 2.5 μM
Experimental: as §1

myeloma cells = test: CFSE cell proliferation assay; assay type: cell-based, human; conditions: 0.25 μM or 0.5 μM; 72 hours
Experimental: Cell proliferation was measured using the Cell trace^TM CSFE cell proliferation kit. Cells were suspended at 5 × 10^5 cells/ml, incubated with CellTrace^TM reagent for 20 minutes and exposed to the drug at indicated concentrations using DMSO as a control. After 72 h cells were collected, washed twice in 1× PBS, fixed with 3,7% formaldehyde and analysed by flow cytometry.

T2 sequence (P54578 whole entry): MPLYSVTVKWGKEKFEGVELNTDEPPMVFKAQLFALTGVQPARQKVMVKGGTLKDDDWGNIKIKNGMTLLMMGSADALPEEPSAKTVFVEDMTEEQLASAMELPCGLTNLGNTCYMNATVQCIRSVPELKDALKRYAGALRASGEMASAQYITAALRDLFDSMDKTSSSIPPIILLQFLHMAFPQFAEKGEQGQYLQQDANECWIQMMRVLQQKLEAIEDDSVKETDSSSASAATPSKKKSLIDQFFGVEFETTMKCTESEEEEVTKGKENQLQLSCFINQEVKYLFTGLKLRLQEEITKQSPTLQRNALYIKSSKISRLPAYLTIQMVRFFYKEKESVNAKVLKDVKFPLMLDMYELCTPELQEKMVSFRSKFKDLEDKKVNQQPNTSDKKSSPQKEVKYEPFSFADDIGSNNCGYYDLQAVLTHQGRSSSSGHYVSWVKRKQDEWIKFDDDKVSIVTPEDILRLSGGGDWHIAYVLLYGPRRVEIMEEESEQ

Question: Which “inhibition of UCHL5 (Ub-VS labeling)” value (UCHL5) does the source give for `C=CC(=O)N1CC/C(=C\c2ccc(F)c([N+](=O)[O-])c2)C(=O)/C(=C/c2ccc(F)c([N+](=O)[O-])c2)C1` [VLX1570] here?
Answer: The value was “required higher drug concentrations”.

Question: And the IC50 (proteasome DUB activity)?
Answer: The IC50 was less than 1000 nM.

Question: What about the “solubility compared to b-AP15” value [1] of the same molecule?
Answer: Its value is “improved solubility”.

Question: And the “inhibition of a panel of non-proteasomal DUBs” value (non-proteasomal DUBs)?
Answer: The value was “not inhibiting”.

Question: What about the “drug associated with the cells after wash-out” value (OPM-2 cells) of the same molecule?
Answer: The value was “Approximately 70%”.

Question: And the Kd (USP14 [2])?
Answer: The Kd was 35 µM.

Question: And the IC50 (RPMI8226)?
Answer: Its IC50 is 74 ± 2 nM.

Question: What about the “inhibition of USP14 activity (Ub-VS labeling)” value (USP14 [3]) of the same molecule?
Answer: Its value is “strongly inhibited”.

Question: What about the “cell cycle arrest (CFSE dilution)” value (myeloma cells) of the same molecule?
Answer: Its value is “arrest myeloma cells in the cell cycle”.
